Reference: ChEMBL document CHEMBL1122718, “Benzylamines: synthesis and evaluation of antimycobacterial properties” (1984)

How the values were obtained:
[1] = tested on: Mycobacterium tuberculosis; assay: Compounds were evaluated for the minimum inhibitory concentration (MIC) Mycobacterium tuberculosis H 37 Rv (INH resistant); format: functional
[2] = tested on: Mycobacterium tuberculosis; assay: Compounds were evaluated for the minimum inhibitory concentration (MIC) Mycobacterium tuberculosis H 37 Rv (thiosemicarbazone resistant); format: functional

CCCCNCc1cccc(F)c1.Cl
MIC [1]: 8 µg/mL
MIC [2]: 32 µg/mL
